3 compounds from patent US20040152685A1, “Agents and methods for the prevention of initial onset and recurrence of existing cancers” (priority 2001, published 2004) can be followed below.

Entries after “also recorded” stand apart in the source; their conditions may differ.

Format in all cases: cell-based
Assay [1] has as its system prostate cancer cell lines (LNCaP, DU145) and brain and/or nervous system cancer cell line (DAOY). Put plainly: Cell proliferation of prostate and brain/nervous system cancer cell lines. The note with it: DU145, DAOY cells.
From the text: (§1) In a multitude of experiments, using prostate cancer cell lines (both androgen-dependent (LNCaP), and androgen-independent (DU145) cells), and a brain and/or nervous system cancer cell line (DAOY), the present inventors have studied the effects of 2-ME and 16-ES on cell proliferation and the induction of apoptosis, in a number of ways.
The test system is the same in assay [2]. Put plainly: Induction of apoptosis in prostate and brain/nervous system cancer cell lines. The settings on record: DU145, DAOY cells.
From the text: as §1
The test system of the next assay is LNCaP cells. Put plainly: Cell growth of LNCaP prostate cancer cells after treatment. The note with it: for inhibition of growth of LNCaP cells: 72 hours of treatment, FIG. 7. On the procedure: Cells were treated with either eugenol (0.25, 0.5, 0.75 or 1 mM) or 2-ME (0.5, 1, 2 or 3 mM) or both (0.25, 0.5, 0.75 or 1 mM of eugenol along with 0.5 mM of 2-ME). Cell growth was measured following 72 hours of treatment as described above.

In another assay the test system is DU145 cells. Put plainly: Cell growth of DU145 prostate cancer cells after treatment. The settings on record: Homo sapiens, DU-145, FIG. 6, read-out: concentration necessary to see 50% inhibition of growth.

`C[C@]12CC[C@@H]3c4ccc(O)cc4CC[C@H]3[C@@H]1C[C@H](O)[C@@H]2O` [16-ES, 16-epiestriol]: the “inhibition of cancerous cell growth” value in assay [1] was “does not”. In addition, in assay [2], the pro-apoptotic effects result is “does not”.

On to `COc1cc2c(cc1O)CC[C@@H]1[C@@H]2CC[C@]2(C)[C@@H](O)CC[C@@H]12` [2-ME, 2-methoxyoestradiol], for which the “inhibition of growth of LNCaP cells” value with LNCaP cells (0.5 mM of 2-ME) is listed as “about 20%”. For the same compound, the “inhibition of cancerous cell growth” value in assay [1] is on record as “significantly inhibits cancerous cell growth; also recorded: inhibits the growth”. Besides, in assay [2], the pro-apoptotic effects entry is on record as “has pro-apoptotic effects”.

Take `C=CCc1ccc(O)c(OC)c1` [eugenol]: the “inhibition of growth of LNCaP cells” value with LNCaP cells (0.25 mM of eugenol) was “about 30%”. The IC50 is approximately 750 µM in the assay with LNCaP cells (Homo sapiens, LNCaP, read-out: concentration necessary to see 50% inhibition of growth) and more than 2000 µM in the assay on DU145 cells.
